Test results published in patent publication US4708962A, “Antiviral and antitumor cyclohexadienone compositions” (Harbor Branch Oceanographic Institution, Inc., priority 1985, dated 1987).
In brackets after ≈: the same amount, converted by molar mass.

Tested on: HSV-I
Assay: Antiviral assay: inhibition of HSV-I plaque formation (disks pushed into methyl cellulose overlay)
Format: cell-based, herpes simplex-I
Settings: for 25 to 80 plaque forming units of virus cells
Protocol: The following assay method was utilized to illustrate the antiviral effectiveness of compound (1). (1) Remove 75 cm^2 culture flasks from incubator (these were plated the previous week). (2) Aspirate medium. (3) Wash with 10 ml PBSA or Puck's Saline. (4) Aspirate. (5) Wash a second time with 10 ml PBSA or Puck's Saline. (6) Aspirate. (7) Add 2 ml trypsin/EDTA. Incubate until cells detach (10-20 min). (8) Once detached, shake vigorously and immediately add 8 ml medium and shake again. (9) Count cells. (To 0.5 ml cell suspension add 0.1 ml trypan blue. Wait 5-10 minutes. Count 4 corner squares and middle square of 5×5 array in hemocytometer. Blue cells are dead. Total count per 10 ml in culture flask=# live cells×6×10^5). (10) Maintain cell line by adding 3×10^6 cells to another 75 cm^2 culture flask. Bring to 30 ml with fresh medium. (11) For assay, add 1×10^6 cells to each well (6 wells per culture dish). Bring each well to 2 ml with fresh medium. (12) Incubate overnight at 37° C. (1) Aspirate medium. […] (3) Incubate […] with a small amount of shaking. (4) Add 2 ml MC-4000 to each well. (5) Place disks on surface and push through (1 mg/disc, 0.5 mg/disc, 0.25 mg/disc, etc. for crude extracts). (6) Incubate 48 hr. (making sure dishes remain level). (1) Add 2 ml neutral red medium. (2) Incubate overnight. […]

Structure (SMILES)	minimal effective amounts (antiviral activity)
CC(=O)OCC(Cl)C1=CC(C)(C)C=CC1=O (stereo not drawn) [Compound 1]	50 to 100 micrograms

Tested on: cells
Assay: Zone of cytotoxicity in the antiviral disk assay
Format: cell-based
Settings: read at Day 5, disk assay
Protocol: The following assay method was utilized to illustrate the antiviral effectiveness of compound (1).
(8) Once detached, shake vigorously and immediately add 8 ml medium and shake again.
(9) Count cells. (To 0.5 ml cell suspension add 0.1 ml trypan blue. Wait 5-10 minutes. Count 4 corner squares and middle square of 5×5 array in hemocytometer. Blue cells are dead. Total count per 10 ml in culture
(11) For assay, add 1×10^6 cells to each well (6 wells per culture dish). Bring each well to 2 ml with fresh medium.
(5) Place disks on surface and push through (1 mg/disc, 0.5 mg/disc, 0.25 mg/disc, etc. for crude extracts).
(6) Incubate 48 hr. (making sure dishes remain level).
(1) Add 2 ml neutral red medium.

Structure (SMILES)	zone of cytotoxicity as the diameter
CC(=O)OCC(Cl)C1=CC(C)(C)C=CC1=O (stereo not drawn) [Compound 1]	16 mm

Tested on: P-388 murine leukemia cells
Assay: Cytotoxicity assay, P388 mouse leukemia cells
Format: cell-based
Settings: P-388, summary table, read-out: Test Cells at (ID 50), P-388
Protocol: (§1) The following assay method was utilized to illustrate the antitumor effectiveness of compounds 1-7.
(§2) L1210 And P388 MOUSE LEUKEMIA CELL; ILEOCECAL ADENO CARCINOMA HCT-8; AND LUNG CARCINOMA A549; CYTOXICITY ASSAY 24-WELL PLATE SCREENING ASSAY AND TUBE ASSAY PROTOCOL
(§3) Media--Dulbeccos with glucose and pyruvate (Biologos, Inc) with 10% horse serum, (Biologos, Inc) and 1.0 ug/ml gentamicin (Gibco).
(§4) Cells--L1210 and P-388 mouse leukemia cells (American Type Culture Collection) in media at a concentration of 5×10^4 cells/ml. Sterile 24-well culture plates (Nunc) for screening or 12×75 mm glass culture tubes (Becton-Dickinson) for tube assay. Microdispenser with 1 to 5 ul increments (Drummond Scientific Co. Broomall PA).
(§5) Finnpipette with 5 to 50 ul increments and Finnpipette with 50 to 200 ul increments.
(§6) 1. A sample of the composition to be assayed is added to each well or tube in an amount of from 200 ug/ml and 100 ug/ml for screening. For DDC of known active compounds use log concentrations from 100 ug/ml to 0.01 ug/ml for range-finding assay; when range has been determined, use five concentrations between highest and lowest active concentrations.
(§7) 2. Add 2.0 ml of 5×10^4 cell suspension in media to each well or tube. Tubes are loosely covered with parafilm.
(§8) 3. Incubate in 5% CO2 incubator 48 hours.
(§9) 4. Visually read plates with inverted microscope, comparing with solvent control. Assign activity as follows:
(§10) 1+=75-89% of control growth
(§11) 2+=50-74% of control growth
(§12) 3+=25-49% of control growth
(§13) 4+=<25% of control growth
(§14) Repeat all positive samples using tube assay.
(§15) 5. For Tube assays--Mix tube well on vortex and remove 0.5 ml aliquot and add to 9.5 ml nf diluent fluid (Isoton-Coulter) in Accuvette (Coulter) and mix well by inversion immediately before counting, taking care not to produce excessive bubbles. Count on Coulter Counter (Counter is set to count 0.5 ml of the solution, therefore counts may be converted to cell/ml in original assay tube by multiplying count by 40.
(§16) Positive control--Vinblastine or Vincristine in aqueous solution.

Structure (SMILES)	IC50
COC(C)(OC)C1=CC(C)(C)C=CC1=O [Compound 3]	10 µg/mL (≈ 47.6 µM)
CC1(C)C=CC(=O)C(C2CO2)=C1 (stereo not drawn) [Compound 5]	10 µg/mL (≈ 60.9 µM)
CC(=O)C1=CC(C)(C)C=CC1=O [Compound 4]	5 µg/mL (≈ 30.4 µM)
CC1(C)C=CC(=O)C(C(Cl)CBr)=C1 (stereo not drawn) [Composition 6]	0.5 µg/mL (≈ 1.9 µM)
CC(=O)OCC(Cl)C1=CC(C)(C)C=CC1=O (stereo not drawn) [Compound 1]	5 µg/mL (≈ 20.6 µM)
C=C(OC)C1=CC(C)(C)C=CC1=O [Compound 2]	5 µg/mL (≈ 28.1 µM)

Same assay, conditions: in vitro, P-388 murine leukemia cells, read-out: estimated ID50 (dose which kills 50% of the cells), P-388

Structure (SMILES)	IC50
COC(C)(OC)C1=CC(C)(C)C=CC1=O [Compound 3]	70 µg/mL (≈ 333 µM)
CC1(C)C=CC(=O)C(C2CO2)=C1 (stereo not drawn) [Compound 5]	5 µg/mL (≈ 30.4 µM)
CC(=O)C1=CC(C)(C)C=CC1=O [Compound 4]	70 µg/mL (≈ 426 µM)
CC(=O)OCC(Cl)C1=CC(C)(C)C=CC1=O (stereo not drawn) [Compound 1]	37 µg/mL (≈ 152 µM)

Tested on: L-1210 murine leukemia cells
Assay: Cytotoxicity assay, L1210 mouse leukemia cells
Format: cell-based
Settings: L-1210 murine leukemia cells, read-out: estimated ID50, L-1210
Protocol: as §1, §2, §3, §4, §5, §6, §7, §8, §9, §10, §11, §12, §13, §14, §15, §16

Structure (SMILES)	IC50
CC1(C)C=CC(=O)C(C2CO2)=C1 (stereo not drawn) [Compound 5]	0.7 µg/mL (≈ 4.26 µM)

Same assay, conditions: in vitro, at 200 micrograms per milliliter, read-out: survival, L-1210

Structure (SMILES)	viability at 200 µg/mL
COC(C)(OC)C1=CC(C)(C)C=CC1=O [Compound 3]	17%
CC1(C)C=CC(=O)C(C2CO2)=C1 (stereo not drawn) [Compound 5]	25%
CC(=O)C1=CC(C)(C)C=CC1=O [Compound 4]	41%
C=C(OC)C1=CC(C)(C)C=CC1=O [Compound 2]	15%

Tested on: lung carcinoma A549
Assay: Cytotoxicity assay, lung carcinoma A549
Format: cell-based
Settings: Homo sapiens, 48 h, summary table, read-out: Test Cells at (ID 50), A549
Protocol: as §1, §2, §3, §5, §6, §7, §8, §9, §10, §11, §12, §13, §14, §15, §16

Structure (SMILES)	IC50
COC(C)(OC)C1=CC(C)(C)C=CC1=O [Compound 3]	30 µg/mL (≈ 143 µM)
CC1(C)C=CC(=O)C(C2CO2)=C1 (stereo not drawn) [Compound 5]	1 µg/mL (≈ 6.09 µM)
CC(=O)C1=CC(C)(C)C=CC1=O [Compound 4]	5 µg/mL (≈ 30.4 µM)
CC1(C)C=CC(=O)C(C(Cl)CBr)=C1 (stereo not drawn) [Composition 6]	5 µg/mL (≈ 19 µM)
CC(=O)OCC(Cl)C1=CC(C)(C)C=CC1=O (stereo not drawn) [Compound 1]	20 µg/mL (≈ 82.4 µM)
C=C(OC)C1=CC(C)(C)C=CC1=O [Compound 2]	30 µg/mL (≈ 168 µM)

Tested on: ileocecal adenocarcinoma HCT-8
Assay: Cytotoxicity assay, ileocecal adenocarcinoma HCT-8
Format: cell-based
Settings: Homo sapiens, 48 h, summary table, read-out: Test Cells at (ID 50), HCT-8
Protocol: as §1, §2, §3, §5, §6, §7, §8, §9, §10, §11, §12, §13, §14, §15, §16

Structure (SMILES)	IC50
COC(C)(OC)C1=CC(C)(C)C=CC1=O [Compound 3]	30 µg/mL (≈ 143 µM)
CC1(C)C=CC(=O)C(C2CO2)=C1 (stereo not drawn) [Compound 5]	5 µg/mL (≈ 30.4 µM)
CC(=O)C1=CC(C)(C)C=CC1=O [Compound 4]	5 µg/mL (≈ 30.4 µM)
CC1(C)C=CC(=O)C(C(Cl)CBr)=C1 (stereo not drawn) [Composition 6]	5 µg/mL (≈ 19 µM)
CC(=O)OCC(Cl)C1=CC(C)(C)C=CC1=O (stereo not drawn) [Compound 1]	10 µg/mL (≈ 41.2 µM)
C=C(OC)C1=CC(C)(C)C=CC1=O [Compound 2]	20 µg/mL (≈ 112 µM)

Tested on: not listed separately
Assay: Stability at room temperature
Format: physicochemical
Settings: not given

Structure (SMILES)	decomposition
CC1(C)C=CC(=O)C(C(Cl)CO)=C1 (stereo not drawn) [Formula VIII]	decompose at room temperature in two hours
